Test results as given in ChEMBL document CHEMBL1132957, “Design of potent dicyclic (4-10/5-8) gonadotropin releasing hormone (GnRH) antagonists” (J Med Chem, 2000).
Values belong to the compound of their own block, whether it stands above or below them. Calls of active or inactive are those of the source. No cut-off for these calls is given here. Positions of bridges follow the written chain, without caps; N, C: chain ends. Non-standard residues stand in square brackets, D forms with d. Residues, ends and D or L forms follow the SMILES beside them. dPhe(4-Cl) = N[C@H](Cc1ccc(Cl)cc1)C(=O)O; dPhe(4-F) = N[C@H](Cc1ccc(F)cc1)C(=O)O; d2Nal = N[C@H](Cc1ccc2ccccc2c1)C(=O)O; Dap = NC[C@H](N)C(=O)O

How the values were obtained:
[1] = target: T1, Gonadotropin-releasing hormone receptor (Rattus norvegicus, UniProt P30969); test: Competitive radioligand binding assay, in human HEK293 cells stably transfected with the rat Gonadotropin-releasing hormone receptor; assay type: cell-based
T1 sequence (P30969 whole entry): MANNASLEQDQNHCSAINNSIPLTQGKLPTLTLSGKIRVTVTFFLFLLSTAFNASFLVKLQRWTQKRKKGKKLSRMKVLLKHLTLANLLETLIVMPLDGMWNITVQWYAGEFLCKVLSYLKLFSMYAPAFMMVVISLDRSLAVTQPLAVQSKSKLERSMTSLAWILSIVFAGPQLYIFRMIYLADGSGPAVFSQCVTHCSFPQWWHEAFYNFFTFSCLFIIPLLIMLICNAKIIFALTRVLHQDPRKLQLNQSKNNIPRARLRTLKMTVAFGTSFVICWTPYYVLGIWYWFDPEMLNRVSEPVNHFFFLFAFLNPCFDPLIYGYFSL

[2] = system: Rattus norvegicus; test: Evaluated for the ovulation effects in the rat by administering the drug at the doses (2.5 ug); 9/10; assay type: functional, organism-based
[3] = system: Rattus norvegicus; test: Evaluated for the ovulation effects in the rat by administering the drug at the doses (10 ug); 0/10; assay type: functional, organism-based
[4] = system: Rattus norvegicus; test: Evaluated for the ovulation effects in the rat by administering the drug at the doses (5 ug); 3/20; assay type: functional, organism-based
[5] = system: Rattus norvegicus; test: Evaluated for the ovulation effects in the rat by administering the drug at the doses (2.5 ug); 3/8; assay type: functional, organism-based
[6] = system: Rattus norvegicus; test: Evaluated for the ovulation effects in the rat by administering the drug at the doses (1.0 ug); 4/4; assay type: functional, organism-based
[7] = system: Rattus norvegicus; test: Evaluated for the ovulation effects in the rat by administering the drug at the doses (5.0 ug); 0/6; assay type: functional, organism-based
[8] = system: Rattus norvegicus; test: Evaluated for the ovulation effects in the rat by administering the drug at the doses (2.5 ug); 2/8
[9] = system: Rattus norvegicus; test: Evaluated for the ovulation effects in the rat by administering the drug at the doses (100 ug); 5/5; assay type: functional, organism-based
[10] = system: Rattus norvegicus; test: Evaluated for the ovulation effects in the rat by administering the drug at the doses (500 ug); 3/8; assay type: functional, organism-based
[11] = system: Rattus norvegicus; test: Evaluated for the ovulation effects in the rat by administering the drug at the doses (10 ug); 3/3; assay type: functional, organism-based
[12] = system: Rattus norvegicus; test: Evaluated for the ovulation effects in the rat by administering the drug at the doses (250 ug); 0/6; assay type: functional, organism-based
[13] = system: Rattus norvegicus; test: Evaluated for the ovulation effects in the rat by administering the drug at the doses (250 ug); 1/3
[14] = system: Rattus norvegicus; test: Evaluated for the ovulation effects in the rat by administering the drug at the doses (2.5 ug); 1/8; assay type: functional, organism-based
[15] = system: Rattus norvegicus; test: Evaluated for the ovulation effects in the rat by administering the drug at the doses (0.5 ug); 5/5; assay type: functional, organism-based
[16] = system: Rattus norvegicus; test: Evaluated for the ovulation effects in the rat by administering the drug at the doses (1.0 ug); 2/11; assay type: functional, organism-based

Ki ([1]; hek293): 0.84 nM
SMILES: CC[C@H](NC(C)=O)C(=O)N[C@@H](Cc1ccc(Cl)cc1)C(=O)N[C@@H](Cc1c[nH]c2ccccc12)C(=O)N[C@@H](CC(=O)O)C(=O)N[C@@H]1CCC(=O)NCCCC[C@@H](C(=O)N2CCC[C@@H]2C(=O)N[C@@H](C)C(N)=O)NC(=O)[C@H](CC(C)C)NC(=O)[C@@H](CCCNC(=N)N)NC1=O (stereo in doubt; 13)

Ki [1]: 0.1 nM
SMILES: CC(=O)N[C@H](Cc1ccc2ccccc2c1)C(=O)N[C@H](Cc1ccc(Cl)cc1)C(=O)N[C@H](Cc1cccnc1)C(=O)N[C@H]1CC(=O)NC[C@@H](C(N)=O)NC(=O)[C@@H]2CCCN2C(=O)[C@@H]2CCNC(=O)[C@H](Cc3c[nH]cn3)NC(=O)CC[C@H](NC1=O)C(=O)N[C@H](CCCN=C(N)N)C(=O)N[C@@H](CC(C)C)C(=O)N2
Activity [5]: Weak activity
Activity [6]: inactive

Ki [1]: 0.2 nM
SMILES: CC(=O)N[C@H](Cc1ccc2ccccc2c1)C(=O)N[C@H](Cc1ccc(Cl)cc1)C(=O)N[C@H](Cc1cccnc1)C(=O)N[C@H]1CC(=O)NC[C@@H](C(N)=O)NC(=O)[C@@H]2CCCN2C(=O)[C@@H]2CCNC(=O)[C@H](CCCN=C(N)N)NC(=O)CC[C@H](NC1=O)C(=O)N[C@H](CCCN=C(N)N)C(=O)N[C@@H](CC(C)C)C(=O)N2
Activity [14]: Active
Activity [15]: inactive
Activity [16]: Active

Ki [1]: 1.2 nM
SMILES: CC(=O)N[C@H](Cc1ccc2ccccc2c1)C(=O)N[C@H](Cc1ccc(Cl)cc1)C(=O)N[C@H](Cc1c[nH]c2ccccc12)C(=O)N[C@H]1CC(=O)NC[C@@H](C(N)=O)NC(=O)[C@@H]2CCCN2C(=O)[C@@H]2CCCCNC(=O)CC[C@H](NC1=O)C(=O)N[C@H](Cc1ccc3ccccc3c1)C(=O)N[C@@H](CC(C)C)C(=O)N2

Further lines, the compound ahead of its results:

SMILES: CC(=O)N[C@H](Cc1ccc2ccccc2c1)C(=O)N[C@H](Cc1ccc(Cl)cc1)C(=O)N[C@H](Cc1c[nH]c2ccccc12)C(=O)N[C@H]1CC(=O)NC[C@@H](C(N)=O)NC(=O)[C@@H]2CCCN2C(=O)[C@@H]2CCCCNC(=O)CC[C@H](NC1=O)C(=O)N[C@H](CCCN=C(N)N)C(=O)N[C@@H](CC(C)C)C(=O)N2 (Ac-[d2Nal][dPhe(4-Cl)][dW]DE[dR]LKP[Dap]-NH2; lactam 4-10, 5-8)
Ki [1]: 0.32 nM
Activity [2]: inactive
Activity [3]: Active
Activity [4]: Weak activity

SMILES: CC(=O)N[C@H](Cc1ccc2ccccc2c1)C(=O)N[C@H](Cc1ccc(F)cc1)C(=O)N[C@H](Cc1c[nH]c2ccccc12)C(=O)N[C@H]1CC(=O)NC[C@@H](C(N)=O)NC(=O)[C@@H]2CCCN2C(=O)[C@H](CCCN=C(N)N)NC(=O)[C@H](CC(C)C)NC(=O)[C@@H](CCCN=C(N)N)NC(=O)[C@H](Cc2ccc(O)cc2)NC1=O (Ac-[d2Nal][dPhe(4-F)][dW]DY[dR]LRP[Dap]-NH2; lactam 4-10)
Ki ([1]; hek293): 0.36 nM

SMILES: CC(=O)N[C@H](Cc1ccc2ccccc2c1)C(=O)N[C@H](Cc1ccc(Cl)cc1)C(=O)N[C@H](Cc1cccnc1)C(=O)N[C@H]1CC(=O)NC[C@@H](C(N)=O)NC(=O)[C@@H]2CCCN2C(=O)[C@@H]2CCNC(=O)[C@H](Cc3ccc(Cl)cc3)NC(=O)CC[C@H](NC1=O)C(=O)N[C@H](CCCN=C(N)N)C(=O)N[C@@H](CC(C)C)C(=O)N2
Activity [7]: Active
Ki [1]: 0.23 nM
Activity [8]: Weak activity

SMILES: CC(=O)N[C@H](Cc1ccc2ccccc2c1)C(=O)N[C@H](Cc1ccc(Cl)cc1)C(=O)N[C@H](Cc1cccnc1)C(=O)N[C@H]1CC(=O)NC[C@@H](C(N)=O)NC(=O)[C@@H]2CCCN2C(=O)[C@@H]2CCNC(=O)[C@@H](Cc3ccccc3)NC(=O)CC[C@H](NC1=O)C(=O)N[C@H](CCCN=C(N)N)C(=O)N[C@@H](CC(C)C)C(=O)N2
Activity [9]: inactive
Ki [1]: 120 nM
Activity [10]: Weak activity

SMILES: CC(=O)N[C@H](Cc1ccc2ccccc2c1)C(=O)N[C@H](Cc1ccc(Cl)cc1)C(=O)N[C@H](Cc1cccnc1)C(=O)N[C@H]1CC(=O)NC[C@@H](C(N)=O)NC(=O)[C@@H]2CCCN2C(=O)[C@@H]2CCNC(=O)[C@H](CCCN=C(N)N)NC(=O)CC[C@H](NC1=O)C(=O)N[C@H](Cc1cccnc1)C(=O)N[C@@H](CC(C)C)C(=O)N2
Activity [11]: inactive
Ki [1]: 0.59 nM
Activity [12]: Active
Activity [13]: Weak activity
